Assay results from the supplement of paper PMC10307832.

Experiments:
Test in all cases: relative viability (nuclei count vs DMSO), 5 days (fraction); higher = more cells survive
NCI-H3122 = system: NCI-H3122
Summary of the method: (§1)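 Relative viability is defined as nuclei in treated wells over nuclei in vehicle wells. Duplicate plates were run and medians reported. Lung cancer cell lines in 1536-well plates were dosed by pin tool one day after seeding, with one drug or with a fixed anchor-drug dose plus five library-drug doses (not always all listed) in √10 steps, and nuclei were counted after 5 days.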

HCC-44 = system: HCC-44
Summary of the method: as §1

NCI-H1395 = system: NCI-H1395
Summary of the method: as §1

NCI-H2087 = system: NCI-H2087
Summary of the method: as §1

NCI-H23 = system: NCI-H23
Summary of the method: as §1

HARA = system: HARA
Summary of the method: as §1

NCI-H2009 = system: NCI-H2009
Summary of the method: as §1

NCI-H441 = system: NCI-H441
Summary of the method: as §1

LOU-NH91 = system: LOU-NH91
Summary of the method: as §1

NCI-H727 = system: NCI-H727
Summary of the method: as §1

LCLC-103H = system: LCLC-103H
Summary of the method: as §1

Structure (SMILES): CC1(C)CCC(c2ccc(Cl)cc2)=C(CN2CCN(c3ccc(C(=O)NS(=O)(=O)c4ccc(N[C@H](CCN5CCOCC5)CSc5ccccc5)c(S(=O)(=O)C(F)(F)F)c4)cc3)CC2)C1 [Navitoclax] + CC(=O)c1c(C)c2cnc(Nc3ccc(N4CCNCC4)cn3)nc2n(C2CCCC2)c1=O [Palbociclib] (partner 0.5 µM)
- relative viability (NCI-H3122; first compound 0.005 µM): 0.206
- relative viability (NCI-H3122; first compound 0.01581 µM): 0.164
- relative viability (NCI-H3122; first compound 0.05 µM): 0.225
- relative viability (NCI-H3122; first compound 0.1581 µM): 0.177
- relative viability (NCI-H3122; first compound 0.5 µM): 0.182
- relative viability (HCC-44; first compound 0.005 µM): 0.968
- relative viability (HCC-44; first compound 0.01581 µM): 0.919
- relative viability (HCC-44; first compound 0.05 µM): 0.947
- relative viability (HCC-44; first compound 0.1581 µM): 0.893
- relative viability (HCC-44; first compound 0.5 µM): 0.956
- relative viability (NCI-H1395; first compound 0.005 µM): 0.617
- relative viability (NCI-H1395; first compound 0.01581 µM): 0.664
- relative viability (NCI-H1395; first compound 0.05 µM): 0.674
- relative viability (NCI-H1395; first compound 0.1581 µM): 0.653
- relative viability (NCI-H1395; first compound 0.5 µM): 0.583
- relative viability (NCI-H2087; first compound 0.005 µM): 0.22
- relative viability (NCI-H2087; first compound 0.01581 µM): 0.244
- relative viability (NCI-H2087; first compound 0.1581 µM): 0.255
- relative viability (NCI-H2087; first compound 0.5 µM): 0.257
- relative viability (NCI-H23; first compound 0.005 µM): 0.518
- relative viability (NCI-H23; first compound 0.01581 µM): 0.53
- relative viability (NCI-H23; first compound 0.05 µM): 0.496
- relative viability (NCI-H23; first compound 0.1581 µM): 0.446
- relative viability (NCI-H23; first compound 0.5 µM): 0.534
- relative viability (HARA; first compound 0.005 µM): 0.236
- relative viability (HARA; first compound 0.01581 µM): 0.271
- relative viability (HARA; first compound 0.05 µM): 0.243
- relative viability (HARA; first compound 0.1581 µM): 0.191
- relative viability (HARA; first compound 0.5 µM): 0.216
- relative viability (NCI-H2009; first compound 0.005 µM): 0.186
- relative viability (NCI-H2009; first compound 0.01581 µM): 0.302
- relative viability (NCI-H2009; first compound 0.05 µM): 0.202
- relative viability (NCI-H2009; first compound 0.1581 µM): 0.255
- relative viability (NCI-H2009; first compound 0.5 µM): 0.222
- relative viability (NCI-H441; first compound 0.005 µM): 0.225
- relative viability (NCI-H441; first compound 0.01581 µM): 0.268
- relative viability (NCI-H441; first compound 0.05 µM): 0.192
- relative viability (NCI-H441; first compound 0.1581 µM): 0.216
- relative viability (NCI-H441; first compound 0.5 µM): 0.284
- relative viability (LOU-NH91; first compound 0.005 µM): 0.53
- relative viability (LOU-NH91; first compound 0.01581 µM): 0.523
- relative viability (LOU-NH91; first compound 0.05 µM): 0.441
- relative viability (LOU-NH91; first compound 0.1581 µM): 0.477
- relative viability (LOU-NH91; first compound 0.5 µM): 0.409
- relative viability (NCI-H727; first compound 0.005 µM): 0.625
- relative viability (NCI-H727; first compound 0.01581 µM): 0.602
- relative viability (NCI-H727; first compound 0.05 µM): 0.67
- relative viability (NCI-H727; first compound 0.1581 µM): 0.584
- relative viability (NCI-H727; first compound 0.5 µM): 0.527
- relative viability (LCLC-103H; first compound 0.005 µM): 0.453
- relative viability (LCLC-103H; first compound 0.01581 µM): 0.487
- relative viability (LCLC-103H; first compound 0.05 µM): 0.486
- relative viability (LCLC-103H; first compound 0.1581 µM): 0.443
- relative viability (LCLC-103H; first compound 0.5 µM): 0.418
